Test results as given in ChEMBL document CHEMBL1201862, “PubChem BioAssay data set” (2004).
Structures can show the parent of a compound that is named as a salt.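 Method: 48-hour compound exposure of cells in 96-well plates, five concentrations, linear interpolation of endpoints. GI50: concentration for 50% inhibition of growth.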 The source made the active and inactive calls. No stated cut-off is given here; in the data, active = GI50 up to about 1.1 µM and inactive = higher.

Assays:
Assay in all cases: inhibition of tumour cell growth, NCI panel, 48 h
NCI-H522 = tested on: NCI-H522
K562 = tested on: K562
IGROV-1 = tested on: IGROV-1
SN12C = tested on: SN12C
Hs-578T = tested on: Hs-578T
OVCAR-8 = tested on: OVCAR-8
CCRF-CEM = tested on: CCRF-CEM
MCF7 = tested on: MCF7
SK-OV-3 = tested on: SK-OV-3
SF-539 = tested on: SF-539
DU-145 = tested on: DU-145
HL-60 = tested on: HL-60
UO-31 = tested on: UO-31
HT-29 = tested on: HT-29
OVCAR-5 = tested on: OVCAR-5
SK-MEL-28 = tested on: SK-MEL-28
M14 = tested on: M14
NCI-H23 = tested on: NCI-H23
SF-268 = tested on: SF-268
OVCAR-3 = tested on: OVCAR-3

SMILES	GI50 (NCI-H522)	GI50 (K562)	GI50 (IGROV-1)	GI50 (SN12C)	GI50 (Hs-578T)	GI50 (OVCAR-8)	GI50 (CCRF-CEM)	GI50 (MCF7)	GI50 (SK-OV-3)	GI50 (SF-539)	GI50 (DU-145)	GI50 (HL-60)	GI50 (UO-31)	GI50 (HT-29)	GI50 (OVCAR-5)	GI50 (SK-MEL-28)	GI50 (M14)	GI50 (NCI-H23)	GI50 (SF-268)	GI50 (OVCAR-3)
CCC(C)C(N)C(=O)N/N=C\c1c2c(nc3ccccc13)-c1cc3c(c(=O)n1C2)COC(=O)[C@]3(O)CC (stereo not given in full)	< 0.048 µM (active)	0.063 µM (active)	0.832 µM (active)	0.0155 µM (active)	1.82 µM (inactive)	0.0453 µM (active)	< 0.01 µM (active)	< 0.01 µM (active)	0.0528 µM (active)	< 0.01 µM (active)	0.0158 µM (active)	0.0164 µM (active)	0.12 µM (active)	0.69 µM (active)	1.52 µM (inactive)	0.259 µM (active)	0.039 µM (active)	0.0112 µM (active)	< 0.01 µM (active)	0.879 µM (active)
Cc1cc(NC(=O)NC(=O)c2ccccc2N(C)C)ccc1Oc1ncc(Br)cn1	0.21 µM (active)	0.119 µM (active)	1.46 µM (inactive)	1.74 µM (inactive)	0.267 µM (active)	1.1 µM (active)	0.237 µM (active)	0.249 µM (active)	0.437 µM (active)	0.267 µM (active)	1.06 µM (active)	0.073 µM (active)	2.04 µM (inactive)	0.305 µM (active)	8.11 µM (inactive)	0.64 µM (active)	0.957 µM (active)	1.17 µM (inactive)	0.977 µM (active)	0.29 µM (active)
CCN(CC)CCNc1ccc(C)c2sc3ccccc3c(=O)c12 [LUCANTHONE HYDROCHLORIDE]	2.31 µM (inactive)	1.97 µM (inactive)	5.42 µM (inactive)	2.67 µM (inactive)	2.15 µM (inactive)	3.4 µM (inactive)	1.91 µM (inactive)	2.39 µM (inactive)	6.71 µM (inactive)	2.75 µM (inactive)	6.67 µM (inactive)	1.79 µM (inactive)	1.57 µM (inactive)	1.67 µM (inactive)	3.05 µM (inactive)	1.82 µM (inactive)	1.75 µM (inactive)	3.33 µM (inactive)	5.81 µM (inactive)	6.08 µM (inactive)
COc1cc2c(cc1OCCCC(=O)Nc1cc(C(=O)Nc3cc(C(=O)Nc4cc(C(=O)NCCCN(C)C)n(C)c4)n(C)c3)n(C)c1)N=C[C@@H]1CCCN1C2=O	0.224 µM (active)	2.19 µM (inactive)	3.1 µM (inactive)	1.2 µM (inactive)	2.94 µM (inactive)	1.79 µM (inactive)	0.348 µM (active)	2.16 µM (inactive)	14.6 µM (inactive)	3.42 µM (inactive)	3.47 µM (inactive)	1.16 µM (inactive)	1.66 µM (inactive)	1.91 µM (inactive)	3.16 µM (inactive)	2.15 µM (inactive)	1.66 µM (inactive)	1.77 µM (inactive)	1.63 µM (inactive)	2.02 µM (inactive)
CN(C)Cc1cc(/N=N/c2ccccc2Cl)ccc1O	10.6 µM (inactive)	16.7 µM (inactive)	25.8 µM (inactive)	25.6 µM (inactive)	16.7 µM (inactive)	6.05 µM (inactive)	17.4 µM (inactive)	16.8 µM (inactive)	39.2 µM (inactive)	24.3 µM (inactive)	23.5 µM (inactive)	10.8 µM (inactive)	12.9 µM (inactive)	14.2 µM (inactive)	22.9 µM (inactive)	16.9 µM (inactive)	19.3 µM (inactive)	24.7 µM (inactive)	25.1 µM (inactive)	18 µM (inactive)
O=C(O)c1cc2ccccc2c(S(=O)(=O)O)c1O	> 100 µM (inactive)	> 100 µM (inactive)	> 100 µM (inactive)	> 100 µM (inactive)	> 100 µM (inactive)	> 100 µM (inactive)	> 100 µM (inactive)	> 100 µM (inactive)	> 100 µM (inactive)	> 100 µM (inactive)	> 100 µM (inactive)	> 100 µM (inactive)	> 100 µM (inactive)	> 100 µM (inactive)	> 100 µM (inactive)	> 100 µM (inactive)	> 100 µM (inactive)	> 100 µM (inactive)	> 100 µM (inactive)	> 100 µM (inactive)
O=c1[nH]nc(-c2ccccc2)c2[nH]c3c(c12)Cc1ccccc1-3	0.295 µM (active)	0.839 µM (active)	0.723 µM (active)	2.32 µM (inactive)	5.46 µM (inactive)	6.61 µM (inactive)	3.92 µM (inactive)	0.158 µM (active)	6.68 µM (inactive)	2.34 µM (inactive)	10.4 µM (inactive)	0.665 µM (active)	5.41 µM (inactive)	1.4 µM (inactive)	7.16 µM (inactive)	6.01 µM (inactive)	4.06 µM (inactive)	> 26.5 µM (inactive)	2.87 µM (inactive)	0.914 µM (active)
C=C(C)[C@@H]1CC[C@]2(C(=O)O)CC[C@]3(C)[C@H](CC[C@@H]4[C@@]5(C)CC[C@H](C(=O)/C=C/c6ccc(O)cc6)C(C)(C)[C@@H]5CC[C@]43C)[C@@H]12	3.41 µM (inactive)	3.11 µM (inactive)	8.17 µM (inactive)	3.05 µM (inactive)	4.75 µM (inactive)	4.3 µM (inactive)	2.39 µM (inactive)	3.67 µM (inactive)	6.15 µM (inactive)	3.01 µM (inactive)	5.73 µM (inactive)	1.15 µM (inactive)	5.2 µM (inactive)	3.38 µM (inactive)	11.5 µM (inactive)	11.9 µM (inactive)	7.13 µM (inactive)	4.22 µM (inactive)	8.11 µM (inactive)	3.39 µM (inactive)
CC(=O)N1CC[N+](C)(CCCCN2c3ccccc3Sc3cc(N=[N+]=[N-])ccc32)CC1	> 100 µM (inactive)	49.8 µM (inactive)	> 100 µM (inactive)	> 100 µM (inactive)	75.9 µM (inactive)	> 100 µM (inactive)	> 100 µM (inactive)	> 100 µM (inactive)	> 100 µM (inactive)	> 100 µM (inactive)	> 100 µM (inactive)	86.5 µM (inactive)	> 100 µM (inactive)	> 100 µM (inactive)	> 100 µM (inactive)	> 100 µM (inactive)	> 100 µM (inactive)	> 100 µM (inactive)	> 100 µM (inactive)	> 100 µM (inactive)
C=C1C(=O)OC2C1CC(OC(C)=O)/C(C)=C/CCC1(C)OC21 (stereo not given)	> 100 µM (inactive)	> 100 µM (inactive)	> 100 µM (inactive)	> 100 µM (inactive)	> 100 µM (inactive)	> 100 µM (inactive)	> 100 µM (inactive)	> 100 µM (inactive)	> 100 µM (inactive)	> 100 µM (inactive)	> 100 µM (inactive)	> 100 µM (inactive)	> 100 µM (inactive)	> 100 µM (inactive)	> 100 µM (inactive)	> 100 µM (inactive)	> 100 µM (inactive)	> 100 µM (inactive)	> 100 µM (inactive)	> 100 µM (inactive)
CC(C)C1SCc2nc3ccccc3n21 (stereo not given)	71.3 µM (inactive)	34.5 µM (inactive)	24.4 µM (inactive)	21.8 µM (inactive)	36.1 µM (inactive)	40.2 µM (inactive)	34.8 µM (inactive)	13.9 µM (inactive)	> 100 µM (inactive)	38.2 µM (inactive)	91.4 µM (inactive)	43 µM (inactive)	44.8 µM (inactive)	40.4 µM (inactive)	77.3 µM (inactive)	68.1 µM (inactive)	33.4 µM (inactive)	25.9 µM (inactive)	64.3 µM (inactive)	39.8 µM (inactive)
CC(=O)OC12CC(C)C3(O)C4C=C(C)C(=O)[C@@]4(O)CC(CO)=C[C@H]3C1C2(C)C (stereo not given in full)	> 10 µM (inactive)	0.494 µM (active)	> 10 µM (inactive)	> 100 µM (inactive)	0.82 µM (active)	> 10 µM (inactive)	> 1000 µM (inactive)	> 10 µM (inactive)	794 µM (inactive)	> 10 µM (inactive)	> 10 µM (inactive)	0.887 µM (active)	> 10 µM (inactive)	> 10 µM (inactive)	> 10 µM (inactive)	> 10 µM (inactive)	> 10 µM (inactive)	> 10 µM (inactive)	> 10 µM (inactive)	> 10 µM (inactive)
O=C1CN2CCN(CC2)CC(=O)Nc2ccc(cc2)S(=O)(=O)c2ccc(cc2)NC(=O)CN2CCN(CC2)CC(=O)Nc2ccc(cc2)S(=O)(=O)c2ccc(cc2)N1	4.71 µM (inactive)	15.8 µM (inactive)	13.8 µM (inactive)	> 97.5 µM (inactive)	> 100 µM (inactive)	38.8 µM (inactive)	0.31 µM (active)	18.1 µM (inactive)	> 100 µM (inactive)	23.3 µM (inactive)	51.6 µM (inactive)	0.557 µM (active)	> 92.5 µM (inactive)	15 µM (inactive)	37.3 µM (inactive)	48.4 µM (inactive)	25.4 µM (inactive)	44 µM (inactive)	19 µM (inactive)	27.9 µM (inactive)
O=C(/C=C\Nc1ccccc1O)C(F)(F)F	31 µM (inactive)	38.5 µM (inactive)	78.9 µM (inactive)	54.8 µM (inactive)	> 100 µM (inactive)	90.4 µM (inactive)	39 µM (inactive)	43.9 µM (inactive)	49.1 µM (inactive)	> 100 µM (inactive)	> 100 µM (inactive)	16.6 µM (inactive)	27.7 µM (inactive)	> 100 µM (inactive)	> 100 µM (inactive)	> 100 µM (inactive)	40.3 µM (inactive)	78.3 µM (inactive)	> 100 µM (inactive)	19.5 µM (inactive)
